Results: patent US10160766B1, “Benzopyranyl tetracycle compound and pharmaceutical composition having excellent anti-inflammatory effect comprising the same” (Spark Biopharma, Inc., priority 2017, dated 2018)
In brackets after ≈: the same amount, converted by molar mass. Entries after “also recorded” stand apart in the source; their conditions may differ.

Tests used:
[1] = test system: MAPK including p38, JNK, and ERK; experiment: Western blot of MAPK phosphorylation; type: cell-based; conditions: Raw264.7 cells
Description: (§1) Western Blot Analysis Protein sampling was done in 4° C. Cells were harvested in RIPA lysis buffer containing protease inhibitor cocktail and phosphatase inhibitor.
(§2) After centrifugation at 15000 rpm for 20 minutes, supernatant was transferred to new 1.5 mL tube. Protein concentration was normalized with a Micro BCA protein assay kit. The protein samples were analyzed with the Western blot procedure. Protein was transferred into PVDF membrane after SDS-PAGE. Membrane was blocked after transfer step, with 2% BSA in TBST for 1 hour in room temperature.
(§3) Primary antibodies were treated overnight at 4° C. or 1 hour in room temperature, followed by washing with TBST.
(§4) HRP-conjugated secondary antibodies were treated for 1 hour in room temperature. Antibodies were diluted in 1% BSA in TBST solution, with the concentration indicated in antibody manufacturer's protocol. After washing with TBST, the membrane was developed by Amersham ECL prime solution. Chemiluminescent signal was measured by ChemiDoc MP imaging system, and relative quantification were followed using ImageLab 4.0 software. The quantification result was processed with GraphPad Prism 5.0 software.

[2] = Liver microsomal stability, human; type: in vitro ADME; conditions: for microsomal stability Human(%): human liver microsomal
Text: (§5) The aqueous solubility, liver microsomal stabilities and PK profiles was measure for Compounds 1d, 2j, and 2l in the in vivo CLP-induced mouse models.

[3] = test system: TNF-α secretion in Raw264.7 cell; experiment: ELISA of secreted TNF-α; type: cell-based; conditions: Mus musculus, LPS 100 ng/mL, compounds 10 μM, read-out: TNF-α Inhibition Rate (%)
Description: Thus, in order to additionally confirm the inflammation inhibitory effects of Compounds 2f to 2l, the inhibition rate of TNF-α secretion was quantitatively measured by ELISA.
Cells were treated with each Compound 1d, or 2f to 2l, and LPS for 24 hours, followed by ELISA for TNF-α present in the culture solution.
In order to measure the amount of secreted TNF-α, Raw264.7 cell was seeded in transparent 96-well plate and maintained for 1 day. Media was aspirated after 1 day and replaced to serum-free DMEM with 1% (v/v) antibiotic-antimycotic solution. LPS and compounds were treated in a final concentration of 100 ng/mL and 10 μM.
Standard curve was plotted by the dose-dependent treatment of the control TNF-α protein provided with the ELISA kit. Blank value was measured by adding solutions without TNF-α substrate.
The TNF-α secretion inhibition rate of Compounds 1d, and 2f to 2l was confirmed, when compared with control groups.

CLP-induced mice = experiment: Survival rate in CLP-induced mouse model; conditions: for survival rate, in words / survival rate: CLP mice; for survival rate, in words: 10 mg/kg ip daily for 21 days, compared with vehicle and 1d groups; for survival rate: intraperitoneally, daily dose of 10 mg/kg for 21 days, start 1 hour before induction
Description: Briefly, the CLP mouse model is established by performing a surgical procedure to the cecum, which is the organ where the resident enteric microbiome exists. Ligating the cecum and puncturing the end with a needle causes endotoxemia by inducing polymicrobial contamination in the abdominal cavity toward the circulatory system.

NF-κB p65 = NF-κB p65 immunofluorescence (migration to the nucleus); type: cell-based; conditions: Raw264.7 cells, 500 ng/mL LPS
Text: It is concluded that Compounds 1d, 2j, and 2l controlled and regulated the inflammatory signaling pathways in activated macrophages.

PK profiles in mouse = type: in vivo; conditions: ip injection
Text: as §5

HMGB1 = experiment: Immunofluorescence of cellular localization of HMGB1 upon LPS treatment; type: cell-based; conditions: Raw264.7 cell, 20 μM compounds 1 hour prior to 500 ng/mL LPS for 2 hours
Description: From the results shown in Table 6, Compounds 2j (68%) and 2l (60%) had better TNF-α release inhibitory effect than that of Compound 1d (43%). Therefore, it was analyzed with the immunofluorescence whether Compounds 2j and 2l may inhibit the cellular localization of HMGB1 upon LPS treatment.
Raw264.7 cell was seeded in “Nunc Lab-Tek II” chambered coverglass and maintained for 1 day.
Then, 20 μM of compounds were treated 1 hour prior to 500 ng/mL LPS treatment for 2 hours.
After aspirating the media and washing with PBS, 200 μl of 4% paraformaldehyde solution was treated and incubated at room temperature for 20 minutes. Then, 4% paraformaldehyde solution was aspirated and the sample was washed with PBS three times.
For the permeabilization to enable antibody binding, 200 μL of methanol was treated and incubated at −20° C. for 20 minutes. Methanol was then removed and the sample was washed with PBS three times.
Sample was blocked with 2% BSA in PBS solution at room temperature for 1 hour. Then, 2% BSA in PBS solution was removed and primary antibody containing 1% BSA in PBS was treated at 4° C. overnight. Antibody concentration was optimized according to the manufacturer's protocol. Primary antibody solution was removed and the sample was washed with PBS three times. Secondary antibody containing 1% BSA in PBS solution was treated at room temperature for 1 hour.
The secondary antibody used was goat anti rabbit TRITC labeled antibody from Abcam.
After 1 hour, antibody solution was aspirated and the sample was washed with PBS three times. For nucleus staining, Hoechst 33342 was diluted in PBS, and each well was treated and incubated at room temperature for 1 hour. Hoechst 33342 was then removed and the chamber was filled with PBS, continued for imaging using DeltaVision microscope.

[4] = test system: IL-6 secreted from Raw 264.7 cells; experiment: Western blot analysis of IL-6 secretion; type: cell-based; conditions: pretreatment with compounds
Description: From the results shown in Table 6, Compounds 2j (68%) and 2l (60%) had better TNF-α release inhibitory effect than that of Compound 1d (43%). Therefore, the inhibitory effect of IL-6 release secretion was analyzed with the Western blot analysis in order to additionally confirm the inflammation inhibitory effect of Compounds 2j and 2l.
as §1, §2, §3, §4

Aqueous solubility = type: physicochemical
Text: as §5

[5] = Liver microsomal stability, mouse; type: in vitro ADME; conditions: for microsomal stability Mouse(%): mouse liver microsomal
Text: as §5

[6] = test system: NO release in Raw264.7 cells; experiment: Griess assay, inhibition of nitric oxide release; type: cell-based; conditions: 100 ng/mL LPS and compounds 24 hours, compared with control group
Description: Thus, the Griess assay was used to measure nitric oxide secretion for inflammation inhibition in Raw264.7 cells.
Raw 264.7 macrophage cell was cultured in Dulbecco Modified Eagle Medium (DMEM) with 10% (v/v) fetal bovine serum (FBS) and 1% (v/v) antibiotic-anti mycotic solution.
Cell was maintained in a 100 mm cell culture dish under cell culture conditions (5% CO2 incubator at 37° C. with humidified atmosphere).
Griess assay reagent was generated prior to the assay with the following contents listed below: N-(1-naphthyl) ethylenediamine dihydrochloride, 0.1% (m/v); sulfanilamide, 1% (m/v); phosphoric acid (85%); 5% (v/v) in deionized water.
Raw 264.7 cell was seeded in transparent 96-well plate and maintained for 1 day. Media was aspirated, and each well was washed with serum free DMEM for twice. Each well was refilled with serum-free DMEM.
Then 100 ng/mL LPS and compounds were treated afterward and cultured for 24 hours. After the incubation, the supernatant culture media was transferred to new 96-well plate and mixed with 50 μL of Griess assay reagent.
Media-reagent mixture was incubated at room temperature for several minutes. Absorbance was read at 548 nm. Four wells each were used for the control experiment, LPS and DMSO (without any compounds) treated well, and DMSO-only treated well. Blank values were measured.
Blank values were measured by mixing 50 μL of Griess assay reagent with […] and 1% antibiotic-antimycotic containing DMEM.
As for the compounds in which the double bond of the tetrahydropyridazine ring in Compound 1d is moved or eliminated, the inhibition rate of NO release was measured in the same manner as in Test Example 2.
The inhibition rate of NO release for Compounds 2a to 2o prepared in Example 2 was tested in order to confirm the anti-inflammatory effect for the above compounds.

Raw 264.7 cell = experiment: WST (water-soluble tetrazolium) analysis, relative cell viability; type: cell-based; conditions: 100 ng/mL LPS and compounds 24 hours
Description: Relative cell viability of Compound 2a to 2o prepared in Examples 2 was measured by WST (water-soluble tetrazolium) analysis.
Raw 264.7 cell was seeded in transparent 96-well plate and maintained for 1 day.
Media was aspirated, and each well was washed with serum free DMEM for twice. Each well was refilled with serum-free DMEM. Then, 100 ng/mL LPS and compounds were treated afterward and cultured for 24 hours. After the incubation, the supernatant culture media was transferred to new 96-well plate.
Immediately after transferring media, cell-seeded wells were refilled with 100 μL of 10% FBS and 1% antibiotic-antimycotic containing DMEM. Then, 10 μL of Ez-cytox WST assay reagent was used to treat each well, following the manufacturer's protocol.
After incubating for 20 min in a 5% CO2 incubator at 37° C. with humidified atmosphere, absorbance was read at 450 nm.
Blank values were obtained from the well only treated with 10% FBS and 1% antibiotic-antimycotic containing DMEM.

IL-6 = IL-6 level in CLP-induced mice (ELISA); conditions: CLP mouse model, daily dose of 10 mg/kg for 9 days starting 1 hour before CLP induction
Description: After 4 hours, media were transferred to new transparent 96-well plate and diluted with 1% BSA in PBS solution. ELISA assay was performed following the manufacturer's protocol.
ELISA plates (Costar, Cambridge, Mass.) were coated overnight with anti-IL-6 monoclonal antibody (eBioscience, San Diego, Calif.) at 4° C. Wells were blocked with PBS containing 1% bovine serum albumin (Sigma-Aldrich, St. Louis, Mo.) for 1 hour at room temperature (RT) and incubated with serum overnight at 4° C.
After washing, plates were incubated with biotinylated anti-IL-6 antibody (eBioscience) for 1 hour at RT. Streptavidin-conjugated horseradish peroxidase (eBioscience) is attached for 1 hour at RT. Then, Color was developed using TMB solution (eBioscience),
Absorbance was read at 450 nm with a Multiskan Ascent (Labsystems, Kennett Square, Pa.). All experiments were independently performed at least three times.

Row | Compound | phosphorylation of MAPK including p38, JNK, and ERK [1] | liver microsomal stability in humans, in words, compared with Compound 1d [2] | microsomal stability Human(%) [2] | inhibition at 10 µM [3] | survival rate, in words (CLP-induced mice) | survival rate (CLP-induced mice) | migration of NF-κB to the nucleus (NF-κB p65) | PK data AUC (PK profiles in mouse) | PK data Cmax (PK profiles in mouse) | PK data T1/2 (PK profiles in mouse) | PK data Tmax (PK profiles in mouse) | translocation of HMGB1 from the nucleus to the cytosol (HMGB1) | level of IL-6 secreted (western blot) [4] | solubility in aqueous media, in words, compared with Compound 1d (Aqueous solubility) | liver microsomal stability in mice, in words, compared with Compound 1d [5] | microsomal stability Mouse(%) [5] | NO Inhibition rate (%) [6] | Relative Cell Viability (%) (Raw 264.7 cell) | also measured
1 | COc1cc(OC)cc(-n2c(=O)n3n(c2=O)C2C(=CC3)C(C)(C)Oc3cc(O)ccc32)c1 (centres unmarked) [Compound 2l] | clearly inhibited the phosphorylation of MAPK including p38, JNK, and ERK | improved liver microsomal stability | 41.2 ± 4.33% | 60% | superior effects on survival rates | 54% | inhibit the migration of NF-κB to the nucleus | 218 ± 51.8 µg·h/mL | 282 ± 87.0 µg/mL | 5.00 ± 0.98 h | 0.14 ± 0.10 h | inhibited the translocation of HMGB1 from the nucleus to the cytosol | superior inhibitory effect on IL-6 secretion; also recorded: improved the inhibition of IL-6 release | improved solubility in aqueous media | improved liver microsomal stability | 20.2 ± 1.78% | 94% | 121% | –
2 | CC(=O)c1ccc(-n2c(=O)n3n(c2=O)C2C(=CC3)C(C)(C)Oc3cc(O)ccc32)cc1 (centres unmarked) [Compound 2j] | clearly inhibited the phosphorylation of MAPK including p38, JNK, and ERK | improved liver microsomal stability | 30.2 ± 2.81% | 68% | superior effects on survival rates | 74% | inhibit the migration of NF-κB to the nucleus | 202 ± 28.1 µg·h/mL | 100 ± 3.72 µg/mL | 3.45 ± 1.00 h | 0.25 ± 0.00 h | inhibited the translocation of HMGB1 from the nucleus to the cytosol | superior inhibitory effect on IL-6 secretion; also recorded: improved the inhibition of IL-6 release | improved solubility in aqueous media | improved liver microsomal stability | 2.46 ± 1.83% | 93% | 111% | solubility (Aqueous solubility; aqueous media): 162 ± 2.12 µg/mL (≈ 387 µM)
3 | CC1(C)Oc2cc(O)ccc2C2C1=CCn1c(=O)n(-c3ccccc3)c(=O)n12 (centres unmarked) [Compound 1d, inflachromene] | clearly inhibited the phosphorylation of MAPK including p38, JNK, and ERK | – | 0.82 ± 0.29% | 43% | – | about 45% | inhibit the migration of NF-κB to the nucleus | 327 ± 68.7 µg·h/mL | 387 ± 122 µg/mL | 3.87 ± 0.84 h | 0.14 ± 0.10 h | inhibited the translocation of HMGB1 from the nucleus to the cytosol | significantly reduced | – | – | 0.41 ± 0.10% | 87% | 105% | IL-6 levels in surviving mice, compared with control group (IL-6): significantly reduced; survival rate, in words, compared with vehicle-treated group (CLP-induced mice; CLP-induced mice, ip 10 mg/kg for 9 days): significantly increased
4 | CC1(C)Oc2cc(O)ccc2C2C1=CCn1c(=O)n(-c3ccc4c(c3)OCO4)c(=O)n12 (centres unmarked) [Compound 2k] | – | – | – | 46% | – | – | – | – | – | – | – | – | – | – | – | – | 92% | 121% | –
